Laboratory results published in PubChem BioAssay AID179 (DTP/NCI, 2004).
Where “and” joins values, the source holds several entries; their conditions need not be identical. Equal entries are not always repeated. Calls of active or inactive are those of the source.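 How the source made its calls: active means compounds giving half or more protection of infected cells from virus-caused growth loss, again on retest; inactive means the rest.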 Where a SMILES comes first, the peptide text is derived from it. The star is where a group is joined. Fmoc = O=C(OCC1c2ccccc2-c2ccccc21)*; Cbz = O=C(OCc1ccccc1)*; Boc = CC(C)(C)OC(=O)*; Bn = c1ccc(C*)cc1

Tested on: CEM cells HIV-1 protection, formazan growth assay
Experiment: NCI AIDS Antiviral Assay
Conditions: for IC50: measured here: growth of uninfected CEM cells
How it was run: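 CEM (human) cells, HIV-1 infected vs uninfected, 5-point dosing, formazan growth read-out. Retest threshold 50% protection.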

Row | Compound | EC50 | IC50 | outcome
1 | O=C1C=CC(=O)c2c1ccc1c3ccccc3n(Cc3ccc([N+](=O)[O-])cc3)c21 | > 200 µM | 2.82 µM | –
2 | CN(C)CCONC(=O)C12CC3CC(CC(C3)C1)C2 | – | – | inactive
3 | O=S(=O)(N=S(c1ccc(Cl)cc1)c1ccc(Cl)cc1)c1ccccc1 | > 24.5 µM | > 24.5 µM | –
4 | O=C1Cc2c(-c3ccc(Cl)cc3)cc(-c3ccccc3)nc2-c2ccccc2N1 | > 100 µM | 28.8 µM | –
5 | C=CCc1ccccc1CC1(OCC)OC(=O)c2ccccc21 (stereo not drawn) | > 43.7 µM | > 43.7 µM | –
6 | COC1(c2ccccc2)OC(=O)c2ccccc21 (stereo not drawn) | > 200 µM | 83.2 µM | –
7 | COc1cccc2c1OC1(N3CCOCC3)CCCCC1C2C[N+](=O)[O-] (stereo not drawn) | > 200 µM | > 200 µM | –
8 | CC(=O)OCC1OC(N2C(=O)[C@@H](Oc3ccccc3)[C@H]2/C=C/c2ccccc2)C(OC(C)=O)C(OC(C)=O)C1OC(C)=O (stereo partly drawn) | > 16.6 µM | > 16.6 µM | –
9 | O=C1NC(=S)N/C1=C\c1ccco1 | > 200 µM | 105 µM | –
10 | C1CSCCCSCCCSCCCSC1 | > 33.9 µM | > 33.9 µM | –
11 | O=S1(=O)OC2(CCCCC2)c2ccccc21 | > 209 µM | > 209 µM | –
12 | CCOC(=O)C(C)(C)Oc1ccc2c(-c3ccc(Cl)cc3)c(-c3ccc(Cl)cc3)c(=O)oc2c1 | > 7.59 µM | > 7.59 µM | –
13 | O=C1CN(S(=O)(=O)c2ccc([N+](=O)[O-])cc2)CC(=O)CN(S(=O)(=O)c2ccc([N+](=O)[O-])cc2)C1 | > 200 µM | > 200 µM | –
14 | CC12CCC(C3NC(=S)NN=C31)C2(C)C (stereo not drawn) | > 302 µM | > 302 µM | –
15 | COc1ccc(NS(=O)C2CCCCC2)cc1 (stereo not drawn) | > 200 µM | > 200 µM | –
16 | CC(C)c1ccc(/C=C2\CSC/C(=C\c3ccc(C(C)C)cc3)C2=O)cc1 | > 200 µM | 123 µM | –
17 | O=P1(Nc2ccccc2)OCCCN1Cc1ccc(Cl)c(Cl)c1 (stereo not drawn) | > 200 µM | 53.7 µM | –
18 | C[N+](C)(C)CC(=O)N/N=C(/C=C/c1ccccc1)CC1OC(=O)c2ccccc21 (stereo not drawn) | > 589 µM | > 589 µM | –
19 | Cn1c(=O)c(-c2ccccc2)c(N=[N+]=[N-])c2ccccc21 | > 200 µM | 135 µM | –
20 | CCOC1N(C2CC(N=[N+]=[N-])C(CO)O2)C(=O)NC(=O)C1(C)Br (stereo not drawn) | 0.00813 µM and 0.00631 µM | 22.4 µM and 17.4 µM | –
21 | O=C(c1c2c(cc3c1CC1(Cc4cc5c(cc4C1)CCCC5)C3)CCCC2)C(Br)Br | > 100 µM | 4.9 µM | –

Row | Compound | EC50 | IC50 | outcome
22 | Cc1ccc(C(=O)/C=C/c2ccccc2)s1 | > 200 µM | 10.7 µM | –
23 | COc1ccccc1CNCCCCCNCCCCCCCCCCNCCCCCNCc1ccccc1OC | > 200 µM | 28.8 µM | –
24 | OCC1=C[C@@H](O)[C@@H]2C=CO[C@@H](OC3OC(CO)C(O)C(O)C3O)[C@H]12 (stereo partly drawn) | > 724 µM | > 724 µM | –
25 | C=C1NC(=O)C(CC(C(=O)C(=O)Nc2c(C)cccc2C(C)(C)C)C(=O)c2ccc3ccccc3c2)C(=O)N1 (stereo not drawn) | > 178 µM | > 178 µM | –
26 | Cc1ccc(NC(=S)SCCC(=O)O)cc1 | – | – | inactive
27 | COc1cccc2c(=O)c3c(O)c4cc(N(C)C)ccc4c(OC(C)=O)c3oc12 | > 200 µM | 8.91 µM | –
28 | COc1cc(C(c2ccc(N(Cc3ccccc3)Cc3ccccc3)cc2NC(C)=O)c2ccc(N(Cc3ccccc3)Cc3ccccc3)cc2NC(C)=O)ccc1O | > 200 µM | > 200 µM | –
29 | COc1cccc(N2C(=O)[C@H]3[C@H]4CC(C(C)(C)C)CC[C@H]4c4c([nH]c5ccccc45)[C@H]3C2=O)c1 (stereo partly drawn) | 18.2 µM | 26.9 µM | –
30 | CC(=O)SC(SC(C)=O)SC(C)=O | > 209 µM | 155 µM | –
31 | Fc1ccc(N=C2C=CC(=Nc3ccc(F)cc3)c3ccccc32)cc1 | – | – | inactive
32 | Cc1nnc2n1N=C(c1ccc(-c3ccc([N+](=O)[O-])cc3)o1)CS2 | > 5.89 µM | > 5.89 µM | –
33 | Cc1ccc(S(=O)(=O)N/N=C2/CCC(C(C)(C)C)CC2Br)cc1 (stereo not drawn) | > 200 µM | 30.9 µM | –
34 | CCOP(=S)(OCC)Oc1ccc2c(C)c(Cl)c(=O)oc2c1 | > 37.2 µM | > 37.2 µM | –
35 | O=C(Nc1ccc(Cl)cc1Cl)c1c/c(=N\O)c2ccc(O)cc2o1 | – | – | inactive
36 | Clc1ccc(Cl)c(-c2nc3ccccc3[nH]2)c1 | > 97.7 µM | > 97.7 µM | –
37 | C#CC1(O)CCC2C3CCc4cc(Oc5nc(F)nc(-c6c7cc8ccccc8cc7c(SCC)n6CCC)n5)ccc4C3CCC21C (stereo not drawn) | – | – | inactive
38 | CCN(CC)CC1CCCCN1CC(=O)N1c2ccc(Br)cc2C(=O)Nc2cccnc21 (stereo not drawn) | > 200 µM | > 200 µM | –
39 | CCCC(=O)OCc1cc(=O)n(C)c2c3c4c(cc12)c(C)cc(=O)n4CO3 | > 174 µM | 6.76 µM | –
40 | CCCCN=Cc1c(O)c(O)c(C(C)C)c2cc(C)c(-c3c(C)cc4c(C(C)C)c(O)c(O)c(C=NCCCC)c4c3O)c(O)c12 | – | – | inactive
41 | NC1=NN(c2ccccc2)C(=O)C1/C(=N\NC(=O)c1cc2ccccc2cc1O)C(=O)Nc1cccc(C(F)(F)F)c1 (stereo not drawn) | > 6.61 µM | > 6.61 µM | –
42 | COc1ccc(-n2sc3ncc(-c4ccccc4)cc3c2=O)cc1 | 7.08 µM | 35.5 µM | –

Row | Compound | EC50 | IC50 | outcome
43 | CC1=NN(c2ccccc2)C(=O)C1N=Nc1ccc(S(=O)(=O)Nc2ccccn2)cc1 (stereo not drawn) | – | – | inactive
44 | C=CCn1c(=O)c(C(=O)NC(=O)OCC)cn(C2CCCCC2)c1=O | > 145 µM | > 145 µM | –
45 | CCOC(=O)/C(=C\c1ccc([N+](=O)[O-])cc1)C(C)=O | > 257 µM | 64.6 µM | –
46 | COC(=O)C(Cc1ccc(O)cc1)NC(=O)C(COCc1ccccc1)NC(=O)OCc1ccccc1 (stereo not drawn) (Cbz-Ser(Bn)-Tyr-OMe; configuration not given here) | > 200 µM | 30.2 µM | –
47 | COC(=O)Cc1cccc2c(=O)c(S(=O)(=O)NC(=O)Nc3ccc(Cl)cc3)c(-c3ccccc3)oc12 | > 200 µM | 41.7 µM | –
48 | COc1ccc(C2ON(c3ccccn3)CC=C2C)cc1 (stereo not drawn) | > 91.2 µM | 83.2 µM | –
49 | NC(=Nc1ccccc1)N/N=C/c1c[nH]c2ccccc12 | > 380 µM | 0.224 µM | –
50 | O=C(O)c1cc2ccc(Cl)cc2c(O)c1C1=CCCCC1 | > 166 µM | 33.9 µM | –
51 | Nc1cc(S(N)(=O)=O)ccc1SSc1ccc(S(N)(=O)=O)cc1N | 21.4 µM | 63.1 µM | –
52 | COc1ccc(/C(C#N)=C\c2ccc(N(C)C)cc2)cc1 | > 100 µM | 1.23 µM | –
53 | C1=NCCN=Cc2ccccc2NCCNc2ccccc21 | > 200 µM | 91.2 µM | –
54 | O=c1[nH]c2cc(O)ccc2c2cc3c(c(O)c12)OCO3 | – | – | inactive
55 | COc1cc2c3cc1Oc1c(OC)c(OC)cc4c1C(Cc1ccc(O)c(c1)Oc1ccc(cc1)CC3N(C)CC2)N(C)CC4 (stereo not drawn) | – | – | inactive
56 | CCCC[n+]1ccn(-c2nc3ccccc3n2C)c1 | – | – | inactive
57 | C=C(C)[C@H]1C2=CC(C(=O)OC)=C(C[C@H](C(=C)C)[C@H]3O[C@H]3C3=C[C@H]1OC3=O)O2 | > 200 µM | 1.62 µM | –
58 | C=CCCC1(O)C(O)C(CO)O[C@H](O[C@@]2(CO)OC(CO)C(O)C2O)C1O (stereo partly drawn) | – | – | inactive
59 | CC(C)(C)OC(=O)NCCCCC(NC(=O)C(Cc1c[nH]c2ccccc12)NC(=O)OCC1c2ccccc2-c2ccccc21)C(=O)N1CCCC1C(=O)NCC(N)=O (stereo not drawn) (Fmoc-WK(Boc)PG-NH2; configuration not given here) | > 200 µM | > 200 µM | –
60 | Cc1ccc(/C=N/NS(=O)(=O)c2ccc(/C=C3\NC(=O)NC3=O)cc2)cc1 | > 200 µM | > 200 µM | –
61 | CCOC(=O)N(CCCCCCNC(c1ccccc1)S(=O)(=O)O)c1ccccc1 (stereo not drawn) | > 200 µM | 1.82 µM | –
62 | CC(NC(=O)CNC(=O)C(N)CO)C(=O)NC(CCC(N)=O)C(=O)NC(CCCCN)C(=O)N1CCCC1C(=O)NC(CCC(=O)O)C(=O)NC(CCC(=O)O)C(=O)NC(CCC(=O)O)C(=O)NC(CO)C(=O)NC(CO)C(=O)NC(CC(N)=O)C(=O)NC(C)C(=O)NC(Cc1cnc[nH]1)C(=O)NC(CO)C(=O)O (stereo not drawn) (H-SGAQKPEEESSNAHS-OH; configuration not given here) | > 100 µM | > 100 µM | –
63 | Nc1ccc(C(=O)NN2C(=O)C(Cl)C2c2ccccc2O)cc1 (stereo not drawn) | > 200 µM | 29.5 µM | –

Row | Compound | EC50 | IC50 | outcome
64 | O=C1CN2CC(c3ccccc3)OC2c2ccccc2N1 (stereo not drawn) | > 224 µM | > 224 µM | –
65 | CCOc1ccccc1N=Nc1c(-c2ccccc2)nn(C(=O)CC(=O)Nc2cccc(C)c2)c1-c1ccccc1 | > 25.1 µM | > 25.1 µM | –
66 | Cc1c(O)c(O)c(C)c(CCN)c1O | > 200 µM | 11 µM | –
67 | N#CCCSC1SC(=C2SC3=C(SCCS3)S2)SC1SCCC#N (stereo not drawn) | > 200 µM | > 200 µM | –
68 | Cc1ccc(C(N)=O)cc1N=NN(C)C | > 457 µM | 269 µM | –
69 | Cc1c(O)c(OC2OC(CO)C(O)C(O)C2O)cc2c1C=C[C@@H]1[C@@]2(C)C(=O)C[C@]2(C)[C@@H]([C@@](C)(O)C(=O)CCC(C)(C)O)[C@H](O)C[C@@]12C (stereo partly drawn) | > 200 µM | 93.3 µM | –
70 | CCN(CC)c1c(C(=O)/C=C/c2ccc(F)cc2)c(-c2ccccc2)nn(C)c1=O | > 33.9 µM | 7.24 µM | –
71 | Cc1cc(=O)n2c(nc3cc(C)c(C)cc32)s1 | > 200 µM | > 200 µM | –
72 | CCC1(O)C(=O)Nc2ccc(OC)cc2C1=O (stereo not drawn) | – | – | inactive
73 | CC1=C2CCCC2C/C(=N/Nc2ccc([N+](=O)[O-])cc2[N+](=O)[O-])CC1 (stereo not drawn) | – | – | inactive
74 | COc1ccc(CCn2cnn3c(=O)c4ccccc4nc3c2=O)cc1OC | > 13.8 µM | > 13.8 µM | –
75 | C=C1N2[C@@H](CO)[C@H](c3ccccc3)O[C@]2(C)CC[C@]1(C)Cc1ccccc1 | > 200 µM | 83.2 µM | –
76 | NCc1ccc(O)c(O)c1O | > 200 µM | 9.33 µM | –
77 | CC/C(=C(\C#N)c1ccc(OCCN(CC)CC)cc1)c1ccc(OCCN(CC)CC)cc1 | > 200 µM | 1.86 µM | –
78 | O=C(O)[C@@H]1CSC(C(O)CO)N1 (stereo partly drawn) | > 200 µM | > 200 µM | –
79 | O=C1C(C(c2ccccc2)N2CCOCC2)=C(O)C(c2ccccc2)N1c1ccccc1 (stereo not drawn) | – | – | inactive
80 | O=S(=O)(O)c1cc(N=Nc2ccc(O)c3ncccc23)ccc1CCc1ccc(N=Nc2ccc(O)c3ncccc23)cc1S(=O)(=O)O | 6.31 µM | 42.7 µM | –
81 | Cc1nn(C(=O)Cc2ccccc2)c2c1C(c1ccc(/C=C/c3ccccc3)cc1)SC(N)=N2 (stereo not drawn) | 148 µM | > 200 µM | –
